Literature values, collected in article PMC5354290 (PLoS ONE, 2017).

Experiments:
[1] = system: rat model of spared nerve injury; conditions: in vivo, iv
[2] = system: rat model of formalin-induced pain; conditions: in vivo, iv
[3] = system: rat NaV1.2
[4] = system: rNaV1.4
[5] = system: rNaV1.3
[6] = system: rNaV1.5

Molecule	effective dose, times lower than those usually required for analgesia [1]	effective dose, times lower than those usually required for analgesia [2]	inhibition (in words) [3]	inhibition (in words) [4]	inhibition (in words) [5]	inhibition (in words) [6]
CN1CC[C@]23c4c5ccc(O)c4O[C@H]2[C@@H](O)C=C[C@H]3[C@H]1C5 [morphine]	at least 20 times	at least 20 times				
Huwentoxin-IV [HwTx-IV]			inhibits	far less potent	inhibits	far less potent
